Laboratory results: patent US20080070939A1, “LOCAL […] COMPOSITIONS CONTAINING DEXTROROTATORY MORPHINAN DERIVATIVES OR PHARMACEUTICALLY ACCEPTABLE SALTS THEREOF” (CHI MEI FOUNDATION HOSPITAL, priority 2006, published 2008)

Key:
Male Sprague-Dawley rats [1] = assay: Infiltrative cutaneous anesthesia (inhibition of cutaneous trunci muscle reflex, CTMR) after subcutaneous injection in rats; format: in vivo
Experimental: Male Sprague-Dawley rats (weighing about 200 to 250 g); for each dose of each drug, n=8.
In brief, hairs on the dorsal surface (about 10×10 cm^2) of the thoracolumbar region of the rat were shaved, and the shaved surface was sterilized with iodine for preparation. To reduce the number of animals used, the back of the rat was further divided into left and right parts. One drug was injected first at the right part. After a washout period of one week, another drug was injected at the left part.
0.6 mL of drug was injected subcutaneously under the dorsal surface of the thoracolumbar region of the rat using a 30-gauge needle attached to a syringe (Becton Drive, Franklin Lakes, USA). The subcutaneous injection would result in a circular elevation (i.e., a wheal) of the skin, about 2 cm in diameter. The elevation was marked with ink within 1 minute after injection.
CTMR refers to the reflex movement of the skin of the back caused by twitching of the lateral thoracispinal muscle in response to local dorsal cutaneous stimulation. Essentially, a von Frey filament (No.15; Somedic Sales AB, Sweden) to which a cut end of an 18-gauge needle was affixed was used to produce a standard nociceptive stimulus (strength: 19 g). Six pinpricks (at a frequency of 0.5-1 Hz) were applied to a single marked wheal during each test. […] For example, absence of any response to all of the 6 pinpricks was defined as a complete nociceptive block (i.e., 100% MPE).
The difference resided in that subcutaneous injections of ED25, ED50 and ED75 of the drugs were performed based on the method described in the section “A. Drug injection” of this example, and evaluation of the infiltrative cutaneous anesthetic effect was performed based on the method described in the section “B. Neurobehavioral evaluation” of this example.

rats = assay: Systemic safety indices: mortality 24 hours after intraperitoneal injection in rats; conditions: intraperitoneal injection, rats, mortality after 24 hours
Experimental: Essentially, each drug was injected intraperitoneally into the rats (n=8). The number of dead rats was observed after 24 hours, and the rate of mortality (%) was calculated. Thereafter, the doses of each drug and the relative mortality were plotted to obtain dose-mortality curves of the drugs. […] The safety index (LD50/ED50) of each drug was calculated using the LD50 thus obtained and the ED50 obtained in the section “C. Potency evaluation” of this example.

Male Sprague-Dawley rats [2] = assay: Spinal anesthetic effect (spinal blockade) after intrathecal injection in rats; format: in vivo; set-up: AUC of time-% PE curve, spinal blockade of motor function / AUC of time-% PE curve, spinal blockade of proprioception / AUC of time-% PE curve, spinal blockade of nociceptive reaction: unit not given beside the values
Experimental: (§1) Male Sprague-Dawley rats (weighing about 300 to 350 g); for each dose of each drug, n=6.
In brief, for preparation, the hairs on the back of each rat were shaved, and the shaved back was sterilized with iodine.
After three minutes, 50 μL of each of the tested drugs was injected via a 27-gauge needle attached to a 100-μL syringe (Hamilton, Reno, Nev.) into the intrathecal space between the fourth and fifth lumbar vertebrae. The development of spinal blockade was observed from the paralysis of the hind limbs of the rats.
The magnitude of nerve block (including blocking of motor function, proprioception, and nociceptive reaction) was expressed as the percentage of possible effect (hereinafter referred to as % PE), and the maximal value of % PE was expressed as the percentage of maximal possible effect (hereinafter referred to as % MPE).
Motor function was evaluated by measuring the extensor postural thrust of the right hind limbs of the rats using a digital platform balance (Mettler Toledo, Switzerland, model PB1502-S). To test the extensor postural thrust, the rat was held upright with the hind limb extended, so that the body weight of the rat was supported by the distal metatarsus and toes. The extensor postural thrust could be measured as the force of the right hind limb of the rat thrusting the platform balance.
A reduction in the force, resulting in extensor muscle tone, was considered as a motor deficit. A force less than 20 g (i.e., a weight of the “flaccid limb”) was considered absence of an extensor postural thrust or 100% motor block or 100% MPE.
Proprioception was evaluated based on resting posture and postural reactions (including tactile placing and hopping). First, the front half of the rat body and one of the hind limbs were lifted off the ground at the same time so that the rat was standing on one hind limb. Then, the rat was moved laterally, which normally evoked a prompt hopping response of the weight-bearing hind limb of the rat in the direction of movement so as to avoid falling. A predominantly proprioceptive block caused a delayed hopping followed by greater lateral hops. […] Functional deficits were classified into four grades: 3 (normal or 0% MPE), 2 (slightly impaired), 1 (severely impaired), and 0 (completely impaired or 100% MPE).
Nociceptive reaction was evaluated by the withdrawal reflex or vocalization elicited by the pinch of a skin fold over the back at 1 cm near the proximal part of the tail, the lateral metatarsus of the bilateral hind limbs, and the dorsal part of the mid-tail. At each testing time, only one pinch was given to each of the abovementioned four testing sites, and the time interval between stimulations at different sites was around 2 seconds. Nociceptive reactions were classified into five grades: 4 (normal or 0% MPE), 3 (25% MPE), 2 (50% MPE), 1 (75% MPE), and 0 (absent or 100% MPE).
The potency of each drug on spinal blockades was compared using ED50.
Duration was defined as the interval from injection of the tested drugs to complete recovery. The ED25, ED50 and ED75 obtained according to the SAS NLIN analysis in the preceding section “C. Potency evaluation” were used in this experiment.
Regarding the method of evaluating the effect of co-administration, dextromethorphan hydrobromide monohydrate was used as an example.
After the tests, the time of measurement of each drug and its corresponding % PE were plotted to obtain the time-% PE curves of each drug. The area under the curve (AUC) of time-% PE was calculated using the trapezoidal rule, and was used to evaluate the effect of the co-administration of the drugs.
Statistical software, SPSS for Windows® (version 10.0.7) was used. Data were represented as mean±SEM.

sciatic nerve = assay: Sciatic nerve blockade after injection at the sciatic nerve notch in rats; format: in vivo; set-up: AUC of time-% PE curve, sciatic nerve blockade of motor function / AUC of time-% PE curve, sciatic nerve blockade of proprioception / AUC of time-% PE curve, sciatic nerve blockade of nociceptive reaction: unit not given beside the values; conditions: rats
Experimental: as §1
In brief, the rats were slightly anesthetized by inhalation of a low concentration of sevoflurane. Then, 200 μL of tested drugs were injected at the sciatic nerve notch at the left hind limb of the rat using a 27-gauge needle connected to a tuberculin syringe (Becton Dickinson, USA, model BND309623-BX). Thereafter, development of sciatic nerve blockade was observed from the paralysis of the left hind limb of the rat. The right hind limb served as a control during the subsequent functional assay
For proprioception, the front half of the rat body and the right hind limb were off the ground at the same time so that the rat was standing on the left hind limb during the measurement.
The differences resided in that: The sciatic nerve notch injections of ED25, ED50 and ED75 were conducted based on the method described in the preceding section “A. Drug injection” of this example. Evaluations of motor function, proprioception and nociceptive reaction were conducted based on the method described in section “B. Neurobehavioral evaluations” of this example.
The differences resided in that: Before the statistical analysis, Shapiro-Wilk test was used to evaluate whether the data were, theoretically, normally distributed.

[3] = infiltrative cutaneous anesthesia, rats, 2ED50 when administered independently, ED50 for co-administration, mean ± SEM
[4] = infiltrative cutaneous anesthesia, subcutaneous injection, rats
[5] = subcutaneous dose of ED75, rats, mean±SEM
[6] = intrathecal, rats, 2 ED50 when administered independently, ED50 of each drug when co-administered, mean ± SEM
[7] = spinal blockade, mean of motor function, proprioception and nociceptive reaction, intrathecal, rats
[8] = 2ED50 when administered independently, ED50 of each drug when co-administered, mean ± SEM

Dextrorphan tartrate
% MPE (Male Sprague-Dawley rats [1]; [3]): 73 ± 11 % MPE
AUC (% min.) (Male Sprague-Dawley rats [1]; [3]): 3200 ± 690 % min.
Duration (Male Sprague-Dawley rats [1]; [3]): 63 ± 7 min
ED25 (Male Sprague-Dawley rats [1]; [4]): 4.03 mg/kg
ED50 (95% CI) (Male Sprague-Dawley rats [1]; [4]): 5.66 (5.17–6.21) mg/kg
ED75 (Male Sprague-Dawley rats [1]; [4]): 7.97 mg/kg
duration of cutaneous anesthesia compared with lidocaine hydrochloride (Male Sprague-Dawley rats [1]; same effective doses (ED25, ED50 or ED75), rats): longer duration
% MPE of cutaneous nociceptive block (Male Sprague-Dawley rats [1]; [5]): 73±7 % MPE
duration of cutaneous nociceptive block (Male Sprague-Dawley rats [1]; [5]): ~48 ± 3 min
effect of co-administration with lidocaine hydrochloride on cutaneous nociceptive blockade (Male Sprague-Dawley rats [1]; subcutaneous, rats, ED50 of each drug): additive effect
LD50 (95% CI) (rats): 307 (257–369) mg/kg
% MPE of spinal blockades of motor function, proprioception and nociceptive reaction (range over the three functions) (Male Sprague-Dawley rats [2]; intrathecal dose of ED75, rats): 62-77 % MPE
duration of spinal blockades of motor function, proprioception and nociceptive reaction (range over the three functions) (Male Sprague-Dawley rats [2]; intrathecal dose of ED75, rats): 30 to 65 min
effect of co-administration with bupivacaine hydrochloride on spinal blockade (Male Sprague-Dawley rats [2]; intrathecal, rats, ED50 of each drug): synergistic effect
AUC of time-% PE curve, spinal blockade of motor function (Male Sprague-Dawley rats [2]; [6]): 1447 ± 163
AUC of time-% PE curve, spinal blockade of nociceptive reaction (Male Sprague-Dawley rats [2]; [6]): 4332 ± 382
Motor function ED50 (95% CI) (Male Sprague-Dawley rats [2]; spinal blockade of motor function, intrathecal injection, rats): 0.40 (0.39–0.42) mg
Nociceptive reaction ED50 (95% CI) (Male Sprague-Dawley rats [2]; spinal blockade of nociceptive reaction, intrathecal injection, rats): 0.28 (0.26–0.30) mg
Proprioception ED50 (95% CI) (Male Sprague-Dawley rats [2]; spinal blockade of proprioception, intrathecal injection, rats): 0.32 (0.30–0.35) mg
Mean value ED25 (Male Sprague-Dawley rats [2]; [7]): 0.25 mg
Mean value ED50 (Male Sprague-Dawley rats [2]; [7]): 0.33 mg
Mean value ED75 (Male Sprague-Dawley rats [2]; [7]): 0.45 mg
effect of co-administration with lidocaine hydrochloride on sciatic nerve blockades (sciatic nerve; ED50 of each drug): additive effect
AUC of time-% PE curve, sciatic nerve blockade of motor function (sciatic nerve; [8]): 7077 ± 429
AUC of time-% PE curve, sciatic nerve blockade of nociceptive reaction (sciatic nerve; [8]): 8786 ± 915
AUC of time-% PE curve, sciatic nerve blockade of proprioception (sciatic nerve; [8]): 7357 ± 558
duration of sciatic nerve blockade compared with lidocaine hydrochloride (sciatic nerve; same effective doses (ED25, ED50 or ED75)): longer reaction duration
Motor function ED50 (95% CI) (sciatic nerve; sciatic nerve blockade of motor function): 14.66 (13.78–15.58) mg/kg
Nociceptive reaction ED50 (95% CI) (sciatic nerve; sciatic nerve blockade of nociceptive reaction): 13.38 (12.37–14.47) mg/kg
Proprioception ED50 (95% CI) (sciatic nerve; sciatic nerve blockade of proprioception): 14.52 (13.40–15.73) mg/kg
Mean ED50 (sciatic nerve; sciatic nerve blockade, mean of motor function, proprioception and nociceptive reaction): 14.19 mg/kg
